According to patent US20230085307A1, “PYRIDAZINONE COMPOUND AND HERBICIDE” (NISSAN CHEMICAL CORPORATION, priority 2019, published 2023):

Columns and labels:
[1] = system: barnyard grass; assay: Test Example 3: herbicidal effect by foliage application, Wagner pot (Table 18, symbol H); assay type: in vivo, barnyard grass (Echinochloa crus-galli)
Procedure, shortened: (§1)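 Plants were sown in alluvial soil held under 0.1–0.5 cm standing water and grown 14 days in a greenhouse at 25–30 °C. An emulsifiable formulation, water-diluted to the set dose, was then sprayed onto the foliage, and effects were scored three weeks later using previously defined criteria.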

[2] = system: blackgrass; assay: Test Example 4: herbicidal effect by soil treatment (Table 19, symbol J); assay type: in vivo, blackgrass (Alopecurus myosuroides); settings: AAH 320 g/ha
Procedure, shortened: (§2)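 Herbicidal effect was rated 3 weeks after treatment, using the scoring criteria of an earlier test. The compound, formulated as an emulsion and diluted in water to a set herbicide amount, had been sprayed uniformly on soil over freshly sown seeds. Growth took place in a greenhouse at 25° C. to 30° C.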

[3] = system: barnyard grass; assay: Test Example 5: herbicidal effect by foliage application, plastic box (Table 20, symbol H); assay type: in vivo, barnyard grass (Echinochloa crus-galli)
Procedure, shortened: (§3)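 Foliar spray test: emulsion formulation diluted in water to a set application rate, sprayed onto 14-day-old plants raised in diluvial soil at 25° C to 30° C under glass. Both herbicidal effect and crop effect rated visually three weeks later.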

[4] = system: windgrass; assay: Test Example 5: herbicidal effect by foliage application, plastic box (Table 20, symbol L); assay type: in vivo, windgrass (Apera spica-venti)
Procedure, shortened: as §3

[5] = system: southern crabgrass; assay: Test Example 5: herbicidal effect by foliage application, plastic box (Table 20, symbol F); assay type: in vivo, southern crabgrass (Digitaria ciliaris)
Procedure, shortened: as §3

[6] = system: windgrass; assay: Test Example 4: herbicidal effect by soil treatment (Table 19, symbol L); assay type: in vivo, windgrass (Apera spica-venti); settings: for L: windgrass, herbicidal effect grade: amount of applied herbicide 320 g/ha
Procedure, shortened: as §2

[7] = system: blackgrass; assay: Test Example 5: herbicidal effect by foliage application, plastic box (Table 20, symbol J); assay type: in vivo, blackgrass (Alopecurus myosuroides)
Procedure, shortened: as §3

[8] = system: wild oat; assay: Test Example 5: herbicidal effect by foliage application, plastic box (Table 20, symbol I); assay type: in vivo, wild oat (Avena fatua)
Procedure, shortened: as §3

[9] = system: persian speedwell; assay: Test Example 5: herbicidal effect by foliage application, plastic box (Table 20, symbol R); assay type: in vivo, Persian speedwell (Veronica persica)
Procedure, shortened: as §3

[10] = system: rice flat sedge; assay: Test Example 3: herbicidal effect by foliage application, Wagner pot (Table 18, symbol E); assay type: in vivo, rice flat sedge (Cyperus iria)
Procedure, shortened: as §1

[11] = system: velvetleaf; assay: Test Example 5: herbicidal effect by foliage application, plastic box (Table 20, symbol M); assay type: in vivo, velvetleaf (Abutilon theophrasti)
Procedure, shortened: as §3

[12] = system: Italian ryegrass; assay: Test Example 4: herbicidal effect by soil treatment (Table 19, symbol K); assay type: in vivo, Italian ryegrass (Lolium multiflorum); settings: for K: Italian ryegrass, herbicidal effect grade: amount of applied herbicide 320 g/ha
Procedure, shortened: as §2

[13] = system: Italian ryegrass; assay: Test Example 5: herbicidal effect by foliage application, plastic box (Table 20, symbol K); assay type: in vivo, Italian ryegrass (Lolium multiflorum)
Procedure, shortened: as §3

[14] = system: persian speedwell; assay: Test Example 4: herbicidal effect by soil treatment (Table 19, symbol R); assay type: in vivo, Persian speedwell (Veronica persica); settings: for R: persian speedwell, herbicidal effect grade: amount of applied herbicide 320 g/ha
Procedure, shortened: as §2

[15] = system: chickweed; assay: Test Example 4: herbicidal effect by soil treatment (Table 19, symbol P); assay type: in vivo, common chickweed (Stellaria media); settings: for P: chickweed, herbicidal effect grade: amount of applied herbicide 320 g/ha
Procedure, shortened: as §2

[16] = system: green foxtail; assay: Test Example 5: herbicidal effect by foliage application, plastic box (Table 20, symbol G); assay type: in vivo, green foxtail (Setaria viridis)
Procedure, shortened: as §3

[17] = system: wild oat; assay: Test Example 4: herbicidal effect by soil treatment (Table 19, symbol I); assay type: in vivo, wild oat (Avena fatua); settings: for I: wild oat, herbicidal effect grade: amount of applied herbicide 320 g/ha
Procedure, shortened: as §2

[18] = system: Chinese sprangletop; assay: Test Example 3: herbicidal effect by foliage application, Wagner pot (Table 18, symbol D); assay type: in vivo, chinese sprangletop (Leptochloa chinensis)
Procedure, shortened: as §1

[19] = system: lambsquarters; assay: Test Example 5: herbicidal effect by foliage application, plastic box (Table 20, symbol O); assay type: in vivo, lambsquarters (Chenopodium album)
Procedure, shortened: as §3

[20] = system: barnyard grass; assay: Test Example 4: herbicidal effect by soil treatment (Table 19, symbol H); assay type: in vivo, barnyard grass (Echinochloa crus-galli); settings: amount of applied herbicide 320 g/ha
Procedure, shortened: as §2

[21] = system: southern crabgrass; assay: Test Example 4: herbicidal effect by soil treatment (Table 19, symbol F); assay type: in vivo, southern crabgrass (Digitaria ciliaris); settings: amount of applied herbicide 320 g/ha
Procedure, shortened: as §2

[22] = system: chickweed; assay: Test Example 5: herbicidal effect by foliage application, plastic box (Table 20, symbol P); assay type: in vivo, common chickweed (Stellaria media)
Procedure, shortened: as §3

[23] = system: green foxtail; assay: Test Example 4: herbicidal effect by soil treatment (Table 19, symbol G); assay type: in vivo, green foxtail (Setaria viridis); settings: amount of applied herbicide 320 g/ha
Procedure, shortened: as §2

[24] = system: redroot pigweed; assay: Test Example 5: herbicidal effect by foliage application, plastic box (Table 20, symbol N); assay type: in vivo, redroot pigweed (Amaranthus retroflexus)
Procedure, shortened: as §3

[25] = system: lambsquarters; assay: Test Example 4: herbicidal effect by soil treatment (Table 19, symbol O); assay type: in vivo, lambsquarters (Chenopodium album); settings: amount of applied herbicide 320 g/ha
Procedure, shortened: as §2

[26] = system: redroot pigweed; assay: Test Example 4: herbicidal effect by soil treatment (Table 19, symbol N); assay type: in vivo, redroot pigweed (Amaranthus retroflexus); settings: amount of applied herbicide 320 g/ha
Procedure, shortened: as §2

[27] = system: velvetleaf; assay: Test Example 4: herbicidal effect by soil treatment (Table 19, symbol M); assay type: in vivo, velvetleaf (Abutilon theophrasti); settings: amount of applied herbicide 320 g/ha
Procedure, shortened: as §2

[28] = foliage application, 320 g/ha, 3 weeks after application
[29] = amount of applied herbicide 320 g/ha, foliage application after 14-day growth, evaluated three weeks after application
[30] = amount of applied herbicide 320 g/ha
[31] = foliage application, 320 g/ha, evaluated 3 weeks after application

COc1nn(C)c(=O)c(-c2c(-c3cc4ccccc4s3)sc3ccccc23)c1O [1-196]
herbicidal effect on H (barnyard grass), rating 0-5 ([1]; 320 g/ha): 3 (Herbicidal rate of 40% or more and less than 70%) | J: blackgrass, herbicidal effect rating [2]: 0 (Herbicidal rate of 5% or less (almost no effect)) | effect on barnyard grass (H) [3, 28]: 0 (Herbicidal rate of 5% or less (almost no effect)) | effect on windgrass (L) [4, 28]: 0 (Herbicidal rate of 5% or less (almost no effect)) | effect on southern crabgrass (F) [5, 28]: 0 (Herbicidal rate of 5% or less (almost no effect)) | L: windgrass, herbicidal effect rating ([6]; AAH 320 g/ha): 0 (Herbicidal rate of 5% or less (almost no effect)) | effect on blackgrass (J) [7, 28]: 0 (Herbicidal rate of 5% or less (almost no effect)) | effect on wild oat (I) [8, 28]: 0 (Herbicidal rate of 5% or less (almost no effect)) | effect on persian speedwell (R) [9, 28]: 5 (Herbicidal rate of 90% or more (almost completely withered)) | herbicidal effect on E (rice flat sedge), rating 0-5 ([10]; 320 g/ha): 5 (Herbicidal rate of 90% or more (almost completely withered)) | effect on velvetleaf (M) [11, 28]: 3 (Herbicidal rate of 40% or more and less than 70%) | K: Italian ryegrass, herbicidal effect rating ([12]; AAH 320 g/ha): 4 (Herbicidal rate of 70% or more and less than 90%) | effect on Italian ryegrass (K) [13, 28]: 3 (Herbicidal rate of 40% or more and less than 70%) | R: persian speedwell, herbicidal effect rating ([14]; AAH 320 g/ha): 5 (Herbicidal rate of 90% or more (almost completely withered)) | P: chickweed, herbicidal effect rating ([15]; AAH 320 g/ha): 5 (Herbicidal rate of 90% or more (almost completely withered)) | effect on green foxtail (G) [16, 28]: 0 (Herbicidal rate of 5% or less (almost no effect)) | I: wild oat, herbicidal effect rating ([17]; AAH 320 g/ha): 0 (Herbicidal rate of 5% or less (almost no effect)) | herbicidal effect on D (Chinese sprangletop), rating 0-5 ([18]; 320 g/ha): 0 (Herbicidal rate of 5% or less (almost no effect)) | effect on lambsquarters (O) [19, 28]: 5 (Herbicidal rate of 90% or more (almost completely withered))

Cc1nn(C)c(=O)c(-c2c(-c3ccc4c(c3)OCCO4)sc3cc(F)c(F)cc23)c1O [5-037]
herbicidal effect on barnyard grass (H) ([1]; 320 g/ha): 4 (Herbicidal rate of 70% or more and less than 90%) | Herbicidal effect by foliage application, H: barnyard grass [3, 29]: 0 (Herbicidal rate of 5% or less (almost no effect)) | Herbicidal effect by foliage application, L: windgrass [4, 29]: 0 (Herbicidal rate of 5% or less (almost no effect)) | Herbicidal effect by foliage application, F: southern crabgrass [5, 29]: 0 (Herbicidal rate of 5% or less (almost no effect)) | L: windgrass, herbicidal effect grade [6]: 0 (Herbicidal rate of 5% or less (almost no effect)) | Herbicidal effect by foliage application, J: blackgrass [7, 29]: 0 (Herbicidal rate of 5% or less (almost no effect)) | Herbicidal effect by foliage application, I: wild oat [8, 29]: 0 (Herbicidal rate of 5% or less (almost no effect)) | H: barnyard grass, herbicidal effect grade [20]: 0 (Herbicidal rate of 5% or less (almost no effect)) | Herbicidal effect by foliage application, R: persian speedwell [9, 29]: 5 (Herbicidal rate of 90% or more (almost completely withered)) | herbicidal effect on rice flat sedge (E) ([10]; 320 g/ha): 5 (Herbicidal rate of 90% or more (almost completely withered)) | F: southern crabgrass, herbicidal effect grade [21]: 0 (Herbicidal rate of 5% or less (almost no effect)) | Herbicidal effect by foliage application, M: velvetleaf [11, 29]: 5 (Herbicidal rate of 90% or more (almost completely withered)) | K: Italian ryegrass, herbicidal effect grade [12]: 0 (Herbicidal rate of 5% or less (almost no effect)) | Herbicidal effect by foliage application, P: chickweed [22, 29]: 5 (Herbicidal rate of 90% or more (almost completely withered)) | Herbicidal effect by foliage application, K: Italian ryegrass [13, 29]: 0 (Herbicidal rate of 5% or less (almost no effect)) | R: persian speedwell, herbicidal effect grade [14]: 5 (Herbicidal rate of 90% or more (almost completely withered)) | P: chickweed, herbicidal effect grade [15]: 0 (Herbicidal rate of 5% or less (almost no effect)) | Herbicidal effect by foliage application, G: green foxtail [16, 29]: 0 (Herbicidal rate of 5% or less (almost no effect)) | G: green foxtail, herbicidal effect grade [23]: 0 (Herbicidal rate of 5% or less (almost no effect)) | Herbicidal effect by foliage application, N: redroot pigweed [24, 29]: 5 (Herbicidal rate of 90% or more (almost completely withered)) | I: wild oat, herbicidal effect grade [17]: 0 (Herbicidal rate of 5% or less (almost no effect)) | O: lambsquarters, herbicidal effect grade [25]: 5 (Herbicidal rate of 90% or more (almost completely withered)) | herbicidal effect on Chinese sprangletop (D) ([18]; 320 g/ha): 4 (Herbicidal rate of 70% or more and less than 90%) | N: redroot pigweed, herbicidal effect grade [26]: 4 (Herbicidal rate of 70% or more and less than 90%) | Herbicidal effect by foliage application, O: lambsquarters [19, 29]: 5 (Herbicidal rate of 90% or more (almost completely withered)) | M: velvetleaf, herbicidal effect grade [27]: 5 (Herbicidal rate of 90% or more (almost completely withered))

COCc1ccc(-c2oc3ccc(C)cc3c2-c2c(O)c(C)nn(C)c2=O)cc1 [9-061]
Herbicidal effect on H (barnyard grass), foliage application [1, 30]: 5 (Herbicidal rate of 90% or more (almost completely withered)) | H (barnyard grass) herbicidal effect grade [3, 31]: 5 (Herbicidal rate of 90% or more (almost completely withered)) | L (windgrass) herbicidal effect grade [4, 31]: 4 (Herbicidal rate of 70% or more and less than 90%) | F (southern crabgrass) herbicidal effect grade [5, 31]: 5 (Herbicidal rate of 90% or more (almost completely withered)) | L: windgrass, herbicidal effect grade [6]: 0 (Herbicidal rate of 5% or less (almost no effect)) | J (blackgrass) herbicidal effect grade [7, 31]: 5 (Herbicidal rate of 90% or more (almost completely withered)) | I (wild oat) herbicidal effect grade [8, 31]: 3 (Herbicidal rate of 40% or more and less than 70%) | H: barnyard grass, herbicidal effect grade [20]: 5 (Herbicidal rate of 90% or more (almost completely withered)) | R (persian speedwell) herbicidal effect grade [9, 31]: 5 (Herbicidal rate of 90% or more (almost completely withered)) | Herbicidal effect on E (rice flat sedge), foliage application [10, 30]: 5 (Herbicidal rate of 90% or more (almost completely withered)) | F: southern crabgrass, herbicidal effect grade [21]: 5 (Herbicidal rate of 90% or more (almost completely withered)) | M (velvetleaf) herbicidal effect grade [11, 31]: 5 (Herbicidal rate of 90% or more (almost completely withered)) | K: Italian ryegrass, herbicidal effect grade [12]: 5 (Herbicidal rate of 90% or more (almost completely withered)) | P (chickweed) herbicidal effect grade [22, 31]: 5 (Herbicidal rate of 90% or more (almost completely withered)) | K (Italian ryegrass) herbicidal effect grade [13, 31]: 5 (Herbicidal rate of 90% or more (almost completely withered)) | R: persian speedwell, herbicidal effect grade [14]: 5 (Herbicidal rate of 90% or more (almost completely withered)) | P: chickweed, herbicidal effect grade [15]: 4 (Herbicidal rate of 70% or more and less than 90%) | G (green foxtail) herbicidal effect grade [16, 31]: 5 (Herbicidal rate of 90% or more (almost completely withered)) | G: green foxtail, herbicidal effect grade [23]: 5 (Herbicidal rate of 90% or more (almost completely withered)) | N (redroot pigweed) herbicidal effect grade [24, 31]: 5 (Herbicidal rate of 90% or more (almost completely withered)) | I: wild oat, herbicidal effect grade [17]: 2 (Herbicidal rate of 20% or more and less than 40%) | O: lambsquarters, herbicidal effect grade [25]: 5 (Herbicidal rate of 90% or more (almost completely withered)) | Herbicidal effect on D (Chinese sprangletop), foliage application [18, 30]: 4 (Herbicidal rate of 70% or more and less than 90%) | N: redroot pigweed, herbicidal effect grade [26]: 5 (Herbicidal rate of 90% or more (almost completely withered)) | O (lambsquarters) herbicidal effect grade [19, 31]: 5 (Herbicidal rate of 90% or more (almost completely withered)) | M: velvetleaf, herbicidal effect grade [27]: 4 (Herbicidal rate of 70% or more and less than 90%)
